From PubChem BioAssay (NCI)
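Where inhibition never reached the appropriate level, the endpoint shown equals the highest concentration tested. Otherwise, values were interpolated linearly from a five-concentration, 48-hour dose response in 96-well plates. TGI is the concentration that stops growth completely.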

Assays:
Experiment in all cases: NCI anticancer screen, dose series, 48 h
786-0 renal = test system: 786-0 renal
A549 NSCLC = test system: A549 NSCLC
ACHN renal = test system: ACHN renal
BT-549 breast = test system: BT-549 breast
CAKI-1 renal = test system: CAKI-1 renal
CCRF-CEM leukemia = test system: CCRF-CEM leukemia
COLO 205 colon = test system: COLO 205 colon
DU-145 prostate = test system: DU-145 prostate
EKVX NSCLC = test system: EKVX NSCLC
HCC-2998 colon = test system: HCC-2998 colon
HCT-116 colon = test system: HCT-116 colon
HCT-15 colon = test system: HCT-15 colon
HL-60(TB) leukemia = test system: HL-60(TB) leukemia
HOP-62 NSCLC = test system: HOP-62 NSCLC
HOP-92 NSCLC = test system: HOP-92 NSCLC
HS 578T breast = test system: HS 578T breast
HT29 colon = test system: HT29 colon
IGROV1 ovarian = test system: IGROV1 ovarian
K-562 leukemia = test system: K-562 leukemia
KM12 colon = test system: KM12 colon
LOX IMVI melanoma = test system: LOX IMVI melanoma
M14 melanoma = test system: M14 melanoma
MALME-3M melanoma = test system: MALME-3M melanoma
MCF7 breast = test system: MCF7 breast
MDA-MB-231 breast = test system: MDA-MB-231 breast
MDA-MB-435 = test system: MDA-MB-435
MDA-N = test system: MDA-N
MOLT-4 leukemia = test system: MOLT-4 leukemia
NCI-H226 lung = test system: NCI-H226 lung
NCI-H23 lung = test system: NCI-H23 lung
NCI-H522 lung = test system: NCI-H522 lung
OVCAR-3 ovarian = test system: OVCAR-3 ovarian
OVCAR-4 ovarian = test system: OVCAR-4 ovarian
OVCAR-5 ovarian = test system: OVCAR-5 ovarian
OVCAR-8 ovarian = test system: OVCAR-8 ovarian
PC-3 prostate = test system: PC-3 prostate
RPMI-8226 leukemia = test system: RPMI-8226 leukemia
RXF 393 renal = test system: RXF 393 renal
SF-268 CNS = test system: SF-268 CNS
SF-295 CNS = test system: SF-295 CNS
SF-539 CNS = test system: SF-539 CNS
SK-MEL-28 melanoma = test system: SK-MEL-28 melanoma
SK-MEL-5 melanoma = test system: SK-MEL-5 melanoma
SK-OV-3 ovarian = test system: SK-OV-3 ovarian
SN12C renal = test system: SN12C renal
SNB-19 CNS = test system: SNB-19 CNS
SR leukemia = test system: SR leukemia
SW-620 colon = test system: SW-620 colon
T-47D breast = test system: T-47D breast
TK-10 renal = test system: TK-10 renal
U251 CNS = test system: U251 CNS
UACC-257 melanoma = test system: UACC-257 melanoma
UACC-62 melanoma = test system: UACC-62 melanoma
UO-31 renal = test system: UO-31 renal
A498 renal = test system: A498 renal
NCI-H460 lung = test system: NCI-H460 lung
SK-MEL-2 melanoma = test system: SK-MEL-2 melanoma
SNB-75 CNS = test system: SNB-75 CNS
NCI/ADR-RES ovarian = test system: NCI/ADR-RES ovarian

Compound `ClC1=C(Cc2ccccc2)Cc2ccc3c(c21)CCC3` has a TGI (786-0 renal) of 89.1 µM, a TGI (A549 NSCLC) of 98.2 µM and a TGI (ACHN renal) of over 100 µM. It also gave a TGI (BT-549 breast) of 67.5 µM, a TGI (CAKI-1 renal) of 69.7 µM and a TGI (CCRF-CEM leukemia) of 90.1 µM. For the same compound, the TGI (COLO 205 colon) was 26.2 µM, the TGI (DU-145 prostate) was over 100 µM and the TGI (EKVX NSCLC) was over 100 µM. For the same compound, the TGI (HCC-2998 colon) was 40.1 µM, the TGI (HCT-116 colon) was 94.9 µM and the TGI (HCT-15 colon) was over 100 µM. For the same compound, the TGI (HL-60(TB) leukemia) was 41.5 µM, the TGI (HOP-62 NSCLC) was over 100 µM and the TGI (HOP-92 NSCLC) was over 100 µM. The TGI (HS 578T breast) was 84.3 µM, the TGI (HT29 colon) was 50.9 µM and the TGI (IGROV1 ovarian) was over 100 µM. It also gave a TGI (K-562 leukemia) of 76 µM, a TGI (KM12 colon) of 39.2 µM and a TGI (LOX IMVI melanoma) of 32.9 µM. It also gave a TGI (M14 melanoma) of over 100 µM, a TGI (MALME-3M melanoma) of 59.7 µM and a TGI (MCF7 breast) of 37.7 µM. It also gave a TGI (MDA-MB-231 breast) of 57.3 µM, a TGI (MDA-MB-435) of 75.6 µM and a TGI (MDA-N) of over 100 µM. It also gave a TGI (MOLT-4 leukemia) of 39.8 µM, a TGI (NCI-H226 lung) of 74.1 µM and a TGI (NCI-H23 lung) of over 100 µM. For the same compound, the TGI (NCI-H522 lung) was 39.5 µM, the TGI (OVCAR-3 ovarian) was 87.2 µM and the TGI (OVCAR-4 ovarian) was over 100 µM. It also gave a TGI (OVCAR-5 ovarian) of over 100 µM, a TGI (OVCAR-8 ovarian) of over 100 µM and a TGI (PC-3 prostate) of over 100 µM. The TGI (RPMI-8226 leukemia) was 65.3 µM, the TGI (RXF 393 renal) was 45 µM and the TGI (SF-268 CNS) was over 100 µM. It also gave a TGI (SF-295 CNS) of 91.8 µM, a TGI (SF-539 CNS) of over 100 µM and a TGI (SK-MEL-28 melanoma) of over 100 µM. The TGI (SK-MEL-5 melanoma) was 40.6 µM, the TGI (SK-OV-3 ovarian) was over 100 µM and the TGI (SN12C renal) was over 100 µM. For the same compound, the TGI (SNB-19 CNS) was 52 µM, the TGI (SR leukemia) was 36.9 µM and the TGI (SW-620 colon) was over 100 µM. It also gave a TGI (T-47D breast) of 50.4 µM, a TGI (TK-10 renal) of over 100 µM and a TGI (U251 CNS) of 39.3 µM. The TGI (UACC-257 melanoma) was 53.8 µM, the TGI (UACC-62 melanoma) was 60.3 µM and the TGI (UO-31 renal) was 69.6 µM.
`CC1CCC2C(C(=O)O[C@H]3C4CCO[C@@H](OC5OC(CO)C(O)C(O)C5O)C4[C@@]4(CO)O[C@@H]34)=CO[C@@H](OC3OC(CO)C(O)C(O)C3O)C12` (stereo not given in full) gave a TGI (786-0 renal) of over 10 µM, a TGI (A498 renal) of over 10 µM and a TGI (A549 NSCLC) of over 10 µM. The TGI (ACHN renal) was over 10 µM, the TGI (BT-549 breast) was over 10 µM and the TGI (CCRF-CEM leukemia) was over 10 µM. For the same compound, the TGI (DU-145 prostate) was over 10 µM, the TGI (EKVX NSCLC) was over 10 µM and the TGI (HCC-2998 colon) was over 10 µM. The TGI (HCT-116 colon) was over 10 µM, the TGI (HCT-15 colon) was over 10 µM and the TGI (HL-60(TB) leukemia) was over 10 µM. For the same compound, the TGI (HOP-62 NSCLC) was over 10 µM, the TGI (HOP-92 NSCLC) was over 10 µM and the TGI (HS 578T breast) was over 10 µM. For the same compound, the TGI (HT29 colon) was over 10 µM, the TGI (IGROV1 ovarian) was over 10 µM and the TGI (K-562 leukemia) was over 10 µM. The TGI (KM12 colon) was over 10 µM, the TGI (LOX IMVI melanoma) was over 10 µM and the TGI (M14 melanoma) was over 10 µM. The TGI (MALME-3M melanoma) was over 10 µM, the TGI (MCF7 breast) was over 10 µM and the TGI (MDA-MB-231 breast) was over 10 µM. It also gave a TGI (MDA-MB-435) of over 10 µM, a TGI (MDA-N) of over 10 µM and a TGI (MOLT-4 leukemia) of over 10 µM. For the same compound, the TGI (NCI-H226 lung) was over 10 µM, the TGI (NCI-H23 lung) was over 10 µM and the TGI (NCI-H460 lung) was over 10 µM. It also gave a TGI (OVCAR-3 ovarian) of over 10 µM, a TGI (OVCAR-5 ovarian) of over 10 µM and a TGI (OVCAR-8 ovarian) of over 10 µM. It also gave a TGI (PC-3 prostate) of over 10 µM, a TGI (RPMI-8226 leukemia) of over 10 µM and a TGI (RXF 393 renal) of over 10 µM. The TGI (SF-268 CNS) was over 10 µM, the TGI (SF-295 CNS) was over 10 µM and the TGI (SF-539 CNS) was over 10 µM. For the same compound, the TGI (SK-MEL-2 melanoma) was over 10 µM, the TGI (SK-MEL-28 melanoma) was over 10 µM and the TGI (SK-MEL-5 melanoma) was over 10 µM. The TGI (SK-OV-3 ovarian) was over 10 µM, the TGI (SN12C renal) was over 10 µM and the TGI (SNB-19 CNS) was over 10 µM. The TGI (SNB-75 CNS) was over 10 µM, the TGI (SR leukemia) was over 10 µM and the TGI (SW-620 colon) was over 10 µM. The TGI (T-47D breast) was over 10 µM, the TGI (TK-10 renal) was over 10 µM and the TGI (U251 CNS) was over 10 µM. For the same compound, the TGI (UACC-257 melanoma) was over 10 µM, the TGI (UACC-62 melanoma) was over 10 µM and the TGI (UO-31 renal) was over 10 µM.
Work on `COc1ccc(/C(C)=N/OC(=O)c2c(-c3ccccc3Cl)noc2C)cc1CN1CCOCC1` yielded a TGI (786-0 renal) of 59.2 µM, a TGI (A549 NSCLC) of 50.9 µM and a TGI (ACHN renal) of 32.8 µM. For the same compound, the TGI (BT-549 breast) was 54.9 µM, the TGI (CAKI-1 renal) was over 100 µM and the TGI (CCRF-CEM leukemia) was over 100 µM. For the same compound, the TGI (COLO 205 colon) was 31.3 µM, the TGI (DU-145 prostate) was over 100 µM and the TGI (HCC-2998 colon) was 93.8 µM. For the same compound, the TGI (HCT-116 colon) was 36.5 µM, the TGI (HCT-15 colon) was over 100 µM and the TGI (HL-60(TB) leukemia) was 56.1 µM. For the same compound, the TGI (HOP-62 NSCLC) was 62.1 µM, the TGI (HOP-92 NSCLC) was 91.8 µM and the TGI (HS 578T breast) was over 100 µM. It also gave a TGI (HT29 colon) of 36.9 µM, a TGI (IGROV1 ovarian) of 65.6 µM and a TGI (K-562 leukemia) of over 100 µM. It also gave a TGI (KM12 colon) of 70.5 µM, a TGI (LOX IMVI melanoma) of 28.1 µM and a TGI (M14 melanoma) of 28 µM. The TGI (MALME-3M melanoma) was 43.7 µM, the TGI (MCF7 breast) was 46.3 µM and the TGI (MDA-MB-231 breast) was 66.5 µM. For the same compound, the TGI (MDA-MB-435) was 57.3 µM, the TGI (MDA-N) was 39.9 µM and the TGI (MOLT-4 leukemia) was over 100 µM. For the same compound, the TGI (NCI-H226 lung) was over 100 µM, the TGI (NCI-H23 lung) was over 100 µM and the TGI (NCI-H460 lung) was over 100 µM. It also gave a TGI (NCI-H522 lung) of 48.3 µM, a TGI (NCI/ADR-RES ovarian) of over 100 µM and a TGI (OVCAR-3 ovarian) of 68.4 µM. It also gave a TGI (OVCAR-4 ovarian) of over 100 µM, a TGI (OVCAR-5 ovarian) of 45.9 µM and a TGI (OVCAR-8 ovarian) of over 100 µM. For the same compound, the TGI (PC-3 prostate) was 98.1 µM, the TGI (RPMI-8226 leukemia) was 93.6 µM and the TGI (RXF 393 renal) was 77.8 µM. For the same compound, the TGI (SF-268 CNS) was over 100 µM, the TGI (SF-295 CNS) was 32.8 µM and the TGI (SF-539 CNS) was 56.7 µM. For the same compound, the TGI (SK-MEL-2 melanoma) was 34.2 µM, the TGI (SK-MEL-28 melanoma) was 54.4 µM and the TGI (SK-MEL-5 melanoma) was 31.8 µM. For the same compound, the TGI (SK-OV-3 ovarian) was over 100 µM, the TGI (SN12C renal) was 51.3 µM and the TGI (SNB-19 CNS) was 46.2 µM. The TGI (SNB-75 CNS) was 94 µM, the TGI (SR leukemia) was over 100 µM and the TGI (SW-620 colon) was over 100 µM. For the same compound, the TGI (T-47D breast) was 71 µM, the TGI (TK-10 renal) was over 100 µM and the TGI (U251 CNS) was 97.7 µM. For the same compound, the TGI (UACC-257 melanoma) was 46.6 µM, the TGI (UACC-62 melanoma) was 30 µM and the TGI (UO-31 renal) was 22.3 µM.
